The assay has as its target Ubiquitin carboxyl-terminal hydrolase 28 (Homo sapiens) (UniProt Q96RU2). As to the kind of experiment: Ubiquitin-specific peptidase 28 DUB inhibitors, biochemical concentration-dependence assay, validation of primary screening hits (AID 1645866). To be noted: purified USP28, ubiquitin-rhodamine fluorescence, 30 min.

The source made the active and inactive calls.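 How the source made its calls: active means in confirmatory dose-response testing, peak deubiquitinase inhibition of 30% or more; inactive means the rest.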 A value given as a limit tells only on which side of the number the result lay.

Ubiquitin carboxyl-terminal hydrolase 28 (Homo sapiens), sequence (Q96RU2 whole entry, looked up): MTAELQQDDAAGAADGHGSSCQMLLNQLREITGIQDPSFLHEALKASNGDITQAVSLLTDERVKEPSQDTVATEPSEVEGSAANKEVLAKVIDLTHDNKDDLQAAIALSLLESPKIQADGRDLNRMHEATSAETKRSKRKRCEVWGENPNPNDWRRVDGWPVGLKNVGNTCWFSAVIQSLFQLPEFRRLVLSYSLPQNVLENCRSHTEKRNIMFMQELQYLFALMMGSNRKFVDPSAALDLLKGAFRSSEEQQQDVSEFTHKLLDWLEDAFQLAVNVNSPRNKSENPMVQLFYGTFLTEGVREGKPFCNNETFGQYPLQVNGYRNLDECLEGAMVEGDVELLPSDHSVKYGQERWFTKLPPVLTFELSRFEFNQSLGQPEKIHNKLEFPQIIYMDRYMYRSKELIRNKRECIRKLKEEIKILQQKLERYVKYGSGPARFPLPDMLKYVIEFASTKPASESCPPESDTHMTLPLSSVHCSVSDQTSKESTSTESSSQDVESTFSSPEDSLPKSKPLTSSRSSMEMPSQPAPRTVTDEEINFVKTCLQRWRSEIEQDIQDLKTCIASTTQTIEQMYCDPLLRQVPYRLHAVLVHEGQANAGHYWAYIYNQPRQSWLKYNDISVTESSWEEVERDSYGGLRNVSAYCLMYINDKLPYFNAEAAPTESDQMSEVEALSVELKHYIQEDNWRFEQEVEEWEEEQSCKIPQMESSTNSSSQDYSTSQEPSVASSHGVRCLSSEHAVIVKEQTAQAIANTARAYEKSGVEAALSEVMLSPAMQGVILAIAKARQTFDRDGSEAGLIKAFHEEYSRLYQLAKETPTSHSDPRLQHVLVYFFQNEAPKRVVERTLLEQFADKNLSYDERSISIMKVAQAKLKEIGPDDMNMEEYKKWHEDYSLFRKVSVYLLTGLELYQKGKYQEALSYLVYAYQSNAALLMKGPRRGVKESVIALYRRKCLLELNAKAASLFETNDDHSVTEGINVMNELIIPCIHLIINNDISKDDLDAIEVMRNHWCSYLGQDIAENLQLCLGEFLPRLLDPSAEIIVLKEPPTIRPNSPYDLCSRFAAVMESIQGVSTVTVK

In general, IC50 refers to the concentration at which inhibition is half-maximal. `CCOc1cc(N2CCOCC2)c(OCC)cc1NC(=O)c1cc(-c2ccncc2)nc2ccccc12`: the half-maximal inhibitory concentration (IC50) was 7.24 µM.
Under `COc1ccc(CC(NC(C)=O)C(=O)NC2CCN(c3c(Cc4ccccc4)c(C)nc4ncnn34)CC2)cc1OC` (stereo not drawn) stands > 50 µM (inactive); under `CCCN1CCN(C(=O)c2cc(NC(=O)C3CCC3)cc3nc(C)ccc23)CC1`, > 50 µM (inactive).
Under `Nc1c(C(=O)Nc2ccc3c(c2)OCO3)sc2nc(-c3cccnc3)ccc12` stands 1.98 µM; under `CCOC(=O)CSc1nnc(-c2cnn(-c3ccccc3)c2N)o1`, 19.9 µM.
On to `CN(CCc1ccccc1)c1nccc(N2CCN(C(=O)c3csc(-c4cccnc4)n3)CC2)n1`, for which the IC50 was > 50 µM (inactive).
Under `CCOC(=O)c1cnn(-c2ccc(C(=O)Nc3ccc(C)c(Cl)c3)cc2)c1N` stands 5.47 µM; under `COc1cccc(N2C(=O)N(CC(=O)NCc3ccc(Cl)cc3)c3ccccc3S2(=O)=O)c1`, 19.1 µM; under `Cc1ccn(-c2ccc(NC(=O)C3CCCCC3)cc2)n1`, 22.6 µM.
Under `COc1ccc(-c2nc(C)c(C(=O)NCc3ccc(S(N)(=O)=O)cc3)s2)cc1` stands > 50 µM (inactive); under `CCC1(C)Cc2c(sc3nc(SCC(=O)Nc4ccc(C(C)=O)cc4)nc(N)c23)CO1` (stereo not drawn), 17.9 µM.
As to `Cn1c(COc2ccccc2)nnc1SCC(=O)Nc1ccc(N2CCOCC2)cc1`, the IC50 is 2.43 µM.
With `COc1ccc2nc(NC(=O)C(CC(C)C)NS(=O)(=O)c3ccc4c(c3)CCN4C(C)=O)sc2c1` (stereo not drawn), the IC50 was 26 µM.
For the compound `Cc1nc2cccnc2n1C1CCN(C(=O)c2cc3cc(Cl)ccc3[nH]2)C1` (stereo not drawn), the concentration for half-maximal inhibition (IC50) was 25.3 µM.
Under `COc1cc(Cl)ccc1Oc1ncnc2sc(C)c(C)c12` stands > 50 µM (inactive); under `O=C(Cn1c(=O)n(Cc2ccc(F)cc2)c(=O)c2sccc21)Nc1cccc(Cl)c1`, 11.4 µM; under `Cc1ccc(NC(=O)c2cc(=O)n(C)c3c2c(=O)n(C)c(=O)n3C)c(C)c1`, > 50 µM (inactive).
Under `Cc1cccc(NC(=O)Nc2ccc(C)n(CC(=O)Nc3ccccc3)c2=O)c1` stands 4.73 µM; under `Cc1ccc(NC(=O)c2nnn(-c3ccccc3)n2)cc1F`, 19.9 µM; under `CCCCCn1c(Sc2ccc(C)cc2)nc2c1c(=O)[nH]c(=O)n2C`, 14.5 µM.
Under `CC(C)C(=O)Nc1ccc(N2CCN(Cc3ccc(F)cc3)C2=O)nc1` stands 19.3 µM; under `CCc1noc(-c2ccc(OCC(=O)Nc3ccc(C)cc3C)cc2)n1`, 33.7 µM; under `COc1cccc(CNC(=O)c2ccc3c(c2)NC(=O)C2CCCN32)c1OC` (stereo not drawn), > 50 µM (inactive).
Regarding `COc1ccc(CCNC(=O)c2c(N)n(-c3cccc(Cl)c3)c3nc4ccccc4nc23)cc1`, the IC50 was > 50 µM (inactive).
Under `Cn1c(SCc2ccccc2)nnc1-c1csc(-c2ccccc2)n1` stands 31.3 µM.
As to `N#Cc1cc2c(nc1SCC(=O)NCc1ccccc1)CCCC2`, the IC50 is > 50 µM (inactive).
Under `CCn1c(CN2CCCC(c3nc(-c4cccnc4)n[nH]3)C2)nc2ccccc21` (stereo not drawn) stands 3.13 µM.
Under `COc1ccc(NC(=O)c2ccc(Nc3nnc(C)c4ccccc34)cc2)cc1` stands 22.5 µM; under `Cc1csc2ncc(C(=O)N3CCN(c4ccccc4F)CC3)c(=O)n12`, > 50 µM (inactive).
Under `COc1cc(/C=C/C(=O)OCC(=O)Nc2ccc([N+](=O)[O-])cc2OC)ccc1O` stands 18.8 µM; under `COc1c(O)c(O)c2c(=O)cc(-c3ccc(O)cc3)oc2c1OC`, 27.2 µM; under `CCCCC/C=C/C=C/C(=O)OC1C(O)CC(c2ccc3c(c2O)C(=O)c2c(O)cc4cc(C)cc(O)c4c2C3=O)OC1C` (stereo not drawn), 14.6 µM.
For the compound `COc1ccc(C)cc1NC(=O)CSc1nc(C)nc2c1oc1ccccc12`, the IC50 is 22 µM.
Under `Cc1ccc(-c2ccc(N3CCOCC3)nn2)cc1S(=O)(=O)N1CCOCC1` stands > 50 µM (inactive); under `COc1ccc(CC(=O)NCc2ccc3[nH]c(C)cc3c2)cc1`, > 50 µM (inactive).
Under `Cc1ccc2c(Nc3ccc(CC(=O)O)cc3)c(C(=O)N3CCCC3)cnc2n1` stands > 50 µM (inactive).
Under `O=C(CN1CCCc2ccccc21)Nc1ccc(N2CCOCC2)cc1` stands > 50 µM (inactive); under `COc1ccc(C2C(C(=O)Nc3ccccc3OC)=C(C)Nc3nnnn32)cc1Br` (stereo not drawn), 23.2 µM; under `O=C(NCCCN1CCc2ccccc2C1)c1cc2c(s1)CS(=O)(=O)C2`, > 50 µM (inactive).
For the compound `COc1cccc2sc(N3CCN(c4nc5ccccc5s4)CC3)nc12`, the IC50 was > 50 µM (inactive).
Turning to `COc1ccc(N(CC(=O)NC2CCCCC2)C(=O)c2ccc(-c3ccccc3)[nH]2)cc1OC`, the concentration for half-maximal inhibition (IC50) is 4.16 µM.
Under `COc1ccccc1CNC(=O)c1c(O)c2cnn(-c3cccc(C)c3)c2[nH]c1=O` stands 9.36 µM; under `FC(F)(F)c1ccccc1CCN1CCc2nc3ncc(Cl)cc3cc2C1`, > 50 µM (inactive).
Under `O=C1Nc2ccccc2C(=O)C1C(c1ccc(Cl)cc1)C1C(=O)Nc2ccccc2C1=O` (stereo not drawn) stands 28.6 µM; under `Cc1noc(C)c1COc1cccc(C(=O)Nc2cc(Cl)ccc2-n2cncn2)c1`, > 50 µM (inactive).
As to `Cc1cc(=O)n(CC(=O)Nc2ccccc2C)c(Nc2ccc(F)cc2)n1`, the IC50 was 19.5 µM.
Consider `CN(c1ccccc1)c1nc(=O)n(CC(=O)Nc2ccc3c(c2)OCCO3)c2ccccc12`, for which the concentration for half-maximal inhibition (IC50) is 28.2 µM.
Under `COc1ccc(-c2nc3n(n2)C(CC(=O)Nc2cccc4ccccc24)C(=O)N3)cc1` (stereo not drawn) stands 4.08 µM; under `COC(=O)c1cc2c(ccn2C)n1CC(=O)NC1CC1`, > 50 µM (inactive); under `CCOC(=O)Nc1ccc(N2CCn3c(nc4ccccc43)C2)cc1OC`, > 50 µM (inactive).
Under `CC(C)C1Cc2c(sc3nc(SCC(=O)Nc4cccc5ccccc45)nc(N)c23)CO1` (stereo not drawn) stands 38.5 µM; under `COc1cccc(-c2cc(C(=O)Nc3cc(C)n(Cc4ccc(Cl)cc4)n3)no2)c1`, 40.5 µM.
Under `COc1ccc(NC(=O)Cn2cc(C(=O)c3ccc(F)cc3)c(=O)c3cc(C)ccc32)cc1` stands 19.7 µM.
With `COc1ccc(OC)c(-n2c(SCC(=O)N3CCc4ccccc43)nnc2-c2cccc(S(=O)(=O)N(C)C)c2)c1`, the IC50 was 8.44 µM.
Under `O=C(Nc1cccc(S(=O)(=O)N2CCCC2)c1)c1ccc2c(=O)n3c(nc2c1)CCCCC3` stands 21.2 µM.
For `CC(=O)C1=C(O)[C@]2(O)C(=O)c3c(c(C)c4ccc(C)c(O)c4c3O)C[C@H]2[C@@H](N)C1=O`, the IC50 is 1.49 µM.
Under `O=S(=O)(Nc1ccc2oc(-c3ccncc3)nc2c1)c1ccccc1` stands 40.8 µM; under `COCCCNC(=O)Cn1c(=O)n(Cc2ccc(C(=O)NCc3ccccc3OC)cc2)c(=O)c2ccccc21`, > 50 µM (inactive); under `COc1cc(NC(=O)Cn2nc(-c3ccc(F)cc3)ccc2=O)ccc1-n1cnnn1`, 1.98 µM.
Under `Cc1ccc(C(=O)Nc2ccc3nccnc3c2)cc1` stands 9.87 µM; under `COc1cccc(NC(=O)Nc2nccn(-c3ccc(F)cc3)c2=O)c1`, 18.3 µM.
Regarding `O=C(NCC(c1cccnc1)N1CCc2ccccc2C1)C(=O)Nc1ccc2c(c1)OCO2` (stereo not drawn), the IC50 is 28.8 µM.
Under `COc1ccc(CC(=O)Nc2nc(-c3ccco3)c(-c3ccco3)s2)cc1` stands > 5 µM (inactive).

The record behind these values is PubChem BioAssay AID1645866 (Buhrlage Lab, Dana-Farber Cancer Institute and Novartis …, 2021).
